Assay results as given in ChEMBL document CHEMBL4196200 (J Med Chem, 2018).
Each block holds one compound with its values, some of them ahead of it. Numbered stars: 1 amine (or outer) side, 2 acyl side, 3 side chain; on linkers, the order of the positions; unused ones are H or OH. Bridge positions count the residues as written; N and C are the ends. Peptide text beside a SMILES is read from it. X1 = O=C(CCC[*:2])[*:1]

Columns and labels:
[1] = biological target: T1, Vasopressin V1b receptor (Homo sapiens, UniProt P47901); test: Displacement of [3H]-AVP from human V1B receptor expressed in CHO cell membranes
T1 sequence (P47901 whole entry): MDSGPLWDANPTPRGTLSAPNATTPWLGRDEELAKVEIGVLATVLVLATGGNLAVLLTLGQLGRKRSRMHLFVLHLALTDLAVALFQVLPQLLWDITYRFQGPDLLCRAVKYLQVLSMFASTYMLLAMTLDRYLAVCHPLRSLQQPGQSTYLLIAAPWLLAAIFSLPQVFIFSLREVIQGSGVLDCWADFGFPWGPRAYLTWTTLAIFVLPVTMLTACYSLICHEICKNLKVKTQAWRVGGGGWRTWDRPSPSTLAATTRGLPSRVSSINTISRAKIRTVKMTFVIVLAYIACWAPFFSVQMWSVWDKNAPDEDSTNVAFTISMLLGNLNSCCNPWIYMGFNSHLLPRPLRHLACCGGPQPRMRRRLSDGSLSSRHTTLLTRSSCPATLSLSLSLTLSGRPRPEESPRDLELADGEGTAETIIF

[2] = biological target: T2, Oxytocin receptor (Homo sapiens, UniProt P30559); test: Displacement of [3H]-oxytocin from OTR receptor in human USMC cell membranes
T2 sequence (P30559 whole entry): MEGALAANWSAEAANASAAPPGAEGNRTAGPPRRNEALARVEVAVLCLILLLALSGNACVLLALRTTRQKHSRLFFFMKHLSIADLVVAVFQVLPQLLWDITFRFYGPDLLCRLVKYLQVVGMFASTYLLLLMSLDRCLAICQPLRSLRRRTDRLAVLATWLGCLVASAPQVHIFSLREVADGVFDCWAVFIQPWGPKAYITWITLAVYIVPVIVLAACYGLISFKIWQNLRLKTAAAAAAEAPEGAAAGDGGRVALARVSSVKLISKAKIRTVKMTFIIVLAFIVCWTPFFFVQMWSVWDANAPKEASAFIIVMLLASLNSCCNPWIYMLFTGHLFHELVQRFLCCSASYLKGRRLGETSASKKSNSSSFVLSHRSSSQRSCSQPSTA

[3] = biological target: T3, Vasopressin V2 receptor (Homo sapiens, UniProt P30518); test: Displacement of [3H]-AVP from human V2 receptor expressed in CHO cell membranes
T3 sequence (P30518 whole entry): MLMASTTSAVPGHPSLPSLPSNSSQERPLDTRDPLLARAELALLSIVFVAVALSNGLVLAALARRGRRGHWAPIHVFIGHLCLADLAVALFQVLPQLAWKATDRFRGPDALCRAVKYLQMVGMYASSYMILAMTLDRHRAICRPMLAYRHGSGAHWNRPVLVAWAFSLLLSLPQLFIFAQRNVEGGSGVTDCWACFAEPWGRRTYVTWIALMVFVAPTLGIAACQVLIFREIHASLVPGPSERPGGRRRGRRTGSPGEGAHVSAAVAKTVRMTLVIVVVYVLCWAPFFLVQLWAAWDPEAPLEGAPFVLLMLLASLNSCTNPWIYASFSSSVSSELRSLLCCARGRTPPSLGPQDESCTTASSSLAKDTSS

[4] = biological target: T4, Vasopressin V1a receptor (Homo sapiens, UniProt P37288); test: Displacement of [3H]-AVP from human V1A receptor expressed in CHO cell membranes
Target sequence in this assay (P37288 whole entry): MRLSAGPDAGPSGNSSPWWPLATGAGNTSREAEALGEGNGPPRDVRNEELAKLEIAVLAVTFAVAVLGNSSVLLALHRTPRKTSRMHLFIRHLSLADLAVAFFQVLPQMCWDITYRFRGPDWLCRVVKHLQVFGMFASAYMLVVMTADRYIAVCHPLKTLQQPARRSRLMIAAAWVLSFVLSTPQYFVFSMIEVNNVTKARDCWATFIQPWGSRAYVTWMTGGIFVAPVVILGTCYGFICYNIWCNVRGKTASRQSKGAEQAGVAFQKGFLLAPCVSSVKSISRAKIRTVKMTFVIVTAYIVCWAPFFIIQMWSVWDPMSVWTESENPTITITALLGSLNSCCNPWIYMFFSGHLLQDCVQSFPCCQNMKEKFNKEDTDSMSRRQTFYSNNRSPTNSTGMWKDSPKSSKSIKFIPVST

[5] = biological target: T4, Vasopressin V1a receptor; test: Agonist activity at human V1A receptor expressed in HEK cells assessed as increase in intracellular calcium flux at 1 uM incubated for 45 mins by Indo1-AM dye based fluorescence assay relative to AVP; format: functional, cell-based
Target sequence in this assay (P37288 whole entry, looked up): as the sequence (P37288 whole entry) above

[6] = biological target: T5, Oxytocin receptor (Homo sapiens) (UniProt P30559); test: Antagonist activity at human OTR expressed in HEK cells assessed as inhibition of OT-induced intracellular calcium flux at 1 uM incubated for 45 mins by Indo1-AM dye based fluorescence assay relative to OT; format: functional, cell-based
T5 sequence (whole entry): T2 sequence (P30559 whole entry)

[7] = biological target: T5, Oxytocin receptor (Homo sapiens); test: Agonist activity at human OTR receptor expressed in CHO cells co-expressing NFAT-luciferase incubated for 5 hrs by luciferase reporter gene assay relative to OT; format: functional, cell-based
[8] = biological target: T4, Vasopressin V1a receptor; test: Antagonist activity at human V1A receptor expressed in HEK cells assessed as inhibition of AVP-induced intracellular calcium flux incubated for 45 mins by Indo1-AM dye based fluorescence assay relative to AVP; format: functional, cell-based
Target sequence in this assay (P37288 whole entry): as above

[9] = biological target: T4, Vasopressin V1a receptor; test: Displacement of DY647 from SNAP-tagged V1A receptor (unknown origin) expressed in HEK293 cells by TR-FRET assay; format: cell-based
Target sequence in this assay (P37288 whole entry): as above

[10] = biological target: T2, Oxytocin receptor; test: Agonist activity at human OTR expressed in HEK cells assessed as increase in intracellular calcium flux incubated for 45 mins by Indo1-AM dye based fluorescence assay; format: functional, cell-based
[11] = biological target: T5, Oxytocin receptor (Homo sapiens); test: Agonist activity at human OTR expressed in HEK cells assessed as increase in intracellular calcium flux incubated for 45 mins by Indo1-AM dye based fluorescence assay relative to OT; format: functional, cell-based
[12] = biological target: T2, Oxytocin receptor; test: Displacement of DY647 from SNAP-tagged OTR receptor (unknown origin) expressed in HEK293 cells by TR-FRET assay; format: cell-based
[13] = biological target: T2, Oxytocin receptor; test: Antagonist activity at OXR receptor (unknown origin); format: functional
[14] = biological target: T4, Vasopressin V1a receptor; test: Agonist activity at human V1A receptor expressed in CHO cells assessed as increase in myo-inositol 1-phosphate accumulation at 1 uM by IP-One assay relative to AVP; format: functional, cell-based
Target sequence in this assay (P37288 whole entry, looked up): as the sequence (P37288 whole entry) above

[15] = biological target: T5, Oxytocin receptor (Homo sapiens); test: Agonist activity at human OTR receptor expressed in CHO cells assessed as increase in myo-inositol 1-phosphate accumulation at 1 uM by IP-One assay relative to OT; format: functional, cell-based
[16] = biological target: T3, Vasopressin V2 receptor; test: Antagonist activity at V2 receptor (unknown origin); format: functional
[17] = biological target: T4, Vasopressin V1a receptor; test: Antagonist activity at V1A receptor (unknown origin); format: functional
Target sequence in this assay (P37288 whole entry): as above

[18] = biological target: T5, Oxytocin receptor (Homo sapiens); test: Agonist activity at human OTR receptor expressed in HEK293FT cells assessed as stimulation of calcium release by Aequorin based assay relative to OT; format: functional, cell-based
[19] = biological target: T4, Vasopressin V1a receptor
Target sequence in this assay (P37288 whole entry): as above
Description: Agonist activity at human V1a receptor expressed in HEK293FT cells incubated for 30 mins by beta-arrestin recruitment assay

[20] = biological target: T5, Oxytocin receptor (Homo sapiens); test: Agonist activity at human OTR receptor expressed in HEK293FT cells incubated for 30 mins by beta-arrestin recruitment assay relative to OT; format: functional, cell-based
[21] = biological target: T6, Oxytocin receptor (Mus musculus) (UniProt P97926); test: Agonist activity at mouse OTR receptor expressed in HEK293FT cells assessed as stimulation of calcium release by Aequorin based assay relative to OT; format: functional, cell-based
T6 sequence (whole entry): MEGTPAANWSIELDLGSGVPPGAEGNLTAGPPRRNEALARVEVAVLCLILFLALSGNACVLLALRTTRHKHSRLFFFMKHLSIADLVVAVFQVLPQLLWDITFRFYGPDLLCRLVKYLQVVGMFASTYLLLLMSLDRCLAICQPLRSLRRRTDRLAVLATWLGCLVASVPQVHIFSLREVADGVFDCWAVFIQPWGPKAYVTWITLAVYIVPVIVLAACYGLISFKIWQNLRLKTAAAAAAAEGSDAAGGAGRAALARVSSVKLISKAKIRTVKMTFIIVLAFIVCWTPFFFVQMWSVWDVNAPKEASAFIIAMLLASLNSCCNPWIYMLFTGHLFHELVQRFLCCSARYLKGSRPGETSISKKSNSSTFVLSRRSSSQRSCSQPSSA

[22] = biological target: T4, Vasopressin V1a receptor; remark: listed apart in the source
Target sequence in this assay (P37288 whole entry): as the sequence (P37288 whole entry) above
Description: Agonist activity at human V1a receptor expressed in HEK293FT cells assessed as stimulation of calcium release by Aequorin based assay

[23] = biological target: T1, Vasopressin V1b receptor
Description: Agonist activity at human V1b receptor expressed in HEK293FT cells incubated for 30 mins by beta-arrestin recruitment assay

[24] = biological target: T7, Oxytocin receptor (Mus musculus, UniProt P97926); test: Agonist activity at mouse OTR receptor expressed in HEK293FT cells assessed as stimulation of calcium release by Aequorin based assay; format: functional, cell-based
T7 sequence (P97926 whole entry): T6 sequence (whole entry)

- Emax [5]: 5 to 10%
- inhibition [6]: 5 to 10%
- Emax [7]: 100%
- IC50 [8]: 8 nM
- Ki [9]: 196 nM
- EC50 [10]: 28 nM
- Emax [11]: 84%
- Ki [12]: 141 nM
Compound: Cc1cc(C(=O)N2Cc3cnn(C)c3Nc3ccccc32)ccc1CNC(=O)N1CCC[C@H]1C(=S)N1CCCN(C)CC1

- EC50 [22]: Not Active
- IC50 [19]: Not Active
- EC50 [23]: Not Active
- EC50 [24]: 62 nM
- Emax [21]: 85%
Compound: CC[C@H](C)[C@@H]1NC(=O)[C@H](Cc2ccc(OC)cc2)NC(=O)CCCSC[C@@H](C(=O)N2CCC[C@H]2C(=O)N[C@@H](CC(C)C)C(=O)NCC(N)=O)NC(=O)[C@H](CC(N)=O)NC(=O)[C@H](CCC(N)=O)NC1=O [CARBETOCIN] (Y(Me)IQNCPLG-NH2; linker N-5 via X1)

Further lines, the compound ahead of its results:

Compound: Cc1occc1C(=O)Nc1ccc(C(=O)N2CCC(F)(F)/C(=C\C(=O)N3CCC(N4CCCCC4)CC3)c3ccccc32)cc1
- Ki [1]: 25500 nM
- Ki [2]: 71 nM
- Ki [3]: 381 nM
- Ki [4]: 0.3 nM

Compound: O=C(Nc1ccc(C(=O)N2CCCCc3ccccc32)cc1)c1ccccc1-c1ccccc1
- IC50 [13]: 109 nM
- Emax [14]: < 10%
- Emax [15]: < 10%
- IC50 [16]: 0.57 nM
- IC50 [17]: 2.74 nM

Compound: CC[C@H](C)[C@@H]1NC(=O)[C@H](Cc2ccc(O)cc2)NC(=O)[C@@H](N)CSSC[C@@H](C(=O)N2CCC[C@H]2C(=O)N[C@@H](CC(C)C)C(=O)NCC(N)=O)NC(=O)[C@H](CC(N)=O)NC(=O)[C@H](CCC(N)=O)NC1=O [OXYTOCIN]
- Emax [18]: 100%
- IC50 [19]: Not Active
- Emax [20]: 100%
- Emax [21]: 100%
